According to article PMC10066322 (Scientific Reports, 2023):

How the values were obtained:
PARN1-430 = target: T1, PARN1-430 (Homo sapiens, UniProt O95453); assay: Gel assay of poly(A) RNA shortening by PARN1-430; format: biochemical; conditions: 20 μM compound
T1 construct: expression of the C-terminal truncated protein (1-430 aa of PARN) was soluble; His tag (from the pCold I vector); made in house; host or cells: E. coli Rosetta 2 DE
T1 sequence (O95453 1-430): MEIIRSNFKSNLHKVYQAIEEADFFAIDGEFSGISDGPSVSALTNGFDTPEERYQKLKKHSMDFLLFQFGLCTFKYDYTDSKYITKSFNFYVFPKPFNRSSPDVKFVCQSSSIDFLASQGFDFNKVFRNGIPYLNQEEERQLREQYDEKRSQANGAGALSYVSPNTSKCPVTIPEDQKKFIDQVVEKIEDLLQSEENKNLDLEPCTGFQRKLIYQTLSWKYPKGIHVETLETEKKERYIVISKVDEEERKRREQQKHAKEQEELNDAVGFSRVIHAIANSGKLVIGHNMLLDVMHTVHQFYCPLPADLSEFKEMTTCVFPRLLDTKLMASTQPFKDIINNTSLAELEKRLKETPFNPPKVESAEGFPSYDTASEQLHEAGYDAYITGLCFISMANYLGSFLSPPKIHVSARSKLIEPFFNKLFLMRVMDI
Experimental: PARN1-430 was incubated with a fluorescently labeled RNA with a CCUUUCC sequence followed by a 9 nucleotide-long poly(A) tail and the reaction product was visualized on denaturing acrylamide gels. We observed that PARN removed the 3′ oligo(A) tail from the RNA substrate (Fig. 2c and d). […] Moreover, we observed that PARN is inhibited when treated with adenosine monophosphate (AMP), as has been reported previously.
1 µL of protein (73 nM as final concentration) (stock protein is diluted in 1× lysis buffer (HEPES KOH, pH 7.4, 30 mM, KOAc 100 mM, and Mg(Oac)2 2 mM) was added to 4 µL of 2.5× reaction buffer (Tris–HCl pH 7.4, 10 mM, KCl 50 mM, MgCl2 5 mM). If drug was added, reaction was pre-incubated with drugs for 10 min before 5 µL of RNA (5 µM as final concentration) was added. The reaction was incubated at 37 °C for 20 min. After the incubation, the reaction was either diluted with 2× loading buffer and heated to 95 °C for 5 min for gel or quenched by adding 10 µL of quencher solution (30 µM of 3′-BHQ labeled quench DNA in 1% SDS). Quenched reaction was incubated at room temperature for 10–60 min and fluorescence was measured using Fluorescein wavelength measurement.
15% TBE-Urea gel (Thermo Fisher Scientific) was prerun at 20W for 30 min. RNAs from the reaction was loaded into 15% TBE gels and run at 300 V for 35 min. The gel was visualized using iBright (Invitrogen FL1500).

[1] = tested on: PARN activity in Hela cells; assay: miR-21-5p levels in Hela cells by northern blotting (PARN inhibition in cells); format: cell-based, human; conditions: 10 µM, 2 days
Experimental: 48 h after transfection/drug treatment, cells were collected for either RNA or protein analysis.
Total RNA was extracted from cell lysates using TriZol as per manufacturer’s protocol and DNAse treated. After quantification on Nanodrop, total RNA was separated on an acrylamide 7 M Urea gel. RNA was transferred to a nylon membrane (Nytran SPC, GE Healthcare) using semiwet transfer. After UV/EDC crosslinking, the blot was pre-hybridized and hybridized in PerfectHyb Plus Hybridization Buffer (Sigma Aldrich) at 42 °C. Northern probes have been previously described[11],[48]. After hybridization and washing in 2 × SSC 0.1% SDS wash buffer, blots were exposed to a cassette and imaged on a Typhoon FLA 9500 Phosphoimager. Band intensities were quantified using ImageJ and normalized to the U1 levels under each condition.

PARN = target: T2, PARN (Homo sapiens, UniProt O95453); assay: High-throughput screening fluorescence assay with 8-point IC50 curves; format: biochemical; conditions: high-throughput screening hits; 8 points 1:3 dilution, top 100 µM
T2 construct: expression of the C-terminal truncated protein (1-430 aa of PARN) was soluble; His tag (from the pCold I vector); made in house; host or cells: E. coli Rosetta 2 DE
T2 sequence (O95453 1-430): T1 sequence (O95453 1-430)
Experimental: To identify PARN inhibitors in a high-throughput manner, 24,000 compounds from the Enamine kinase library were tested in a HTS utilizing the fluorescence assay (Fig. 3a).
2 µL of protein (100 nM final concentration) (stock protein was diluted in 1× lysis buffer (HEPES KOH, pH 7.4, 30 mM, KOAc 100 mM, and Mg(OAc)2 2 mM) was added to wells using offline Multidrop Combi nL. The reaction was pre-incubated with 12.5 nL of Sygnature library (Enamine kinase library (HBL-24) (31.25 μM) for 15 min before 2 µL of RNA (10 µM) was added (DMSO was added to control wells using Echo 655). The reaction was incubated at 22 °C for 20 min in Cytomat automatic incubator. After the incubation, the reaction was quenched by adding 4 µL of quencher solution (30 µM of 3′-BHQ labeled quench DNA in 1% SDS) using Multidrop Combi nL. The quenched reaction was incubated at room temperature for 10 min and fluorescence was measured using PHERAstar FSX (λ485/520). For the counter screen, no protein was added to the reaction.
Curves were fitted within Genedata using SmartFit algorithm.

O=C(Nc1ncnc2c1ncn2[C@@H]1O[C@H](CO)C[C@H](F)[C@H]1O)c1ccccc1 [TH18]
inhibition of PARN on gels (PARN1-430): could inhibit PARN at 20 μM, except for TH18
PARN inhibitor in cells [1]: No
IC50 (PARN): 200 nM
